Source: the supplement of paper PMC10307832

Assays:
Assay in all cases: relative viability (nuclei count vs DMSO), 5 days (fraction); higher = more cells survive
[1] = compound: C[C@]1(O)C[C@@H](c2nc(-c3ccc4ccc(-c5ccccc5)nc4c3)c3c(N)nccn32)C1 [Linsitinib] + Cc1nc(Nc2ncc(C(=O)Nc3c(C)cccc3Cl)s2)cc(N2CCN(CCO)CC2)n1 [Dasatinib] (partner 0.075 µM)
Method in brief: (§1)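 The day after seeding in 1536-well plates, lung cancer cell lines were treated by pin tool with a single drug, or with a fixed anchor-drug dose together with five library-drug doses (not always all listed) in √10 steps. After 5 days, a combined fix-and-stain solution (final 0.05% Triton X-100, 1% formaldehyde, 1 ug/ml Hoechst) was added. Nuclei counted on 4× images gave relative viability as treated counts over vehicle counts, reported as the median of duplicate plates.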

[2] = compound: Cc1ccc(C(=O)N(CCCN)[C@@H](c2nc3cc(Cl)ccc3c(=O)n2Cc2ccccc2)C(C)C)cc1 [Ispinesib] + CC(=O)c1c(C)c2cnc(Nc3ccc(N4CCNCC4)cn3)nc2n(C2CCCC2)c1=O [Palbociclib] (partner 0.5 µM)
Method in brief: as §1

[3] = compound: Cc1ccc(C(=O)N(CCCN)[C@@H](c2nc3cc(Cl)ccc3c(=O)n2Cc2ccccc2)C(C)C)cc1 [Ispinesib] + CC1(C)CCC(c2ccc(Cl)cc2)=C(CN2CCN(c3ccc(C(=O)NS(=O)(=O)c4ccc(N[C@H](CCN5CCOCC5)CSc5ccccc5)c(S(=O)(=O)C(F)(F)F)c4)cc3)CC2)C1 [Navitoclax] (partner 0.5 µM)
Method in brief: as §1

[4] = compound: Cc1ccc(C(=O)N(CCCN)[C@@H](c2nc3cc(Cl)ccc3c(=O)n2Cc2ccccc2)C(C)C)cc1 [Ispinesib] + COc1cc2c(Oc3ccc(NC(=O)C4(C(=O)Nc5ccc(F)cc5)CC4)cc3F)ccnc2cc1OCCCN1CCOCC1 [Foretinib] (partner 0.25 µM)
Method in brief: as §1

Row | Cell Line | relative viability ([1]; first compound 0.01 µM) | relative viability ([1]; first compound 0.03162 µM) | relative viability ([1]; first compound 0.1 µM) | relative viability ([1]; first compound 0.3162 µM) | relative viability ([1]; first compound 1 µM) | relative viability ([2]; first compound 0.001 µM) | relative viability ([2]; first compound 0.003162 µM) | relative viability ([2]; first compound 0.01 µM) | relative viability ([2]; first compound 0.03162 µM) | relative viability ([2]; first compound 0.1 µM) | relative viability ([3]; first compound 0.001 µM) | relative viability ([3]; first compound 0.003162 µM) | relative viability ([3]; first compound 0.01 µM) | relative viability ([3]; first compound 0.03162 µM) | relative viability ([3]; first compound 0.1 µM) | relative viability ([4]; first compound 0.001 µM) | relative viability ([4]; first compound 0.003162 µM) | relative viability ([4]; first compound 0.01 µM) | relative viability ([4]; first compound 0.03162 µM) | relative viability ([4]; first compound 0.1 µM)
1 | NCI-H1915 | 0.306 | 0.351 | 0.299 | 0.331 | 0.234 | 0.528 | 0.694 | 0.542 | 0.491 | 0.41 | 0.84 | 0.804 | 0.778 | 0.759 | 0.566 | 1.15 | 1.16 | 1.33 | 1.03 | 0.425
2 | NCI-H2347 | 0.3 | 0.339 | 0.317 |  | 0.3 | 0.406 | 0.388 | 0.423 | 0.395 | 0.419 | 0.819 | 0.727 | 0.967 | 0.762 | 0.609 |  | 1.12 | 1.16 | 0.669 | 0.904
3 | HARA | 0.278 | 0.213 | 0.294 |  | 0.204 | 0.299 | 0.262 | 0.284 | 0.256 | 0.225 | 1.28 | 1.17 | 1.36 | 1.17 | 0.12 | 1.18 | 0.931 | 0.976 | 1.04 | 0.132
4 | NCI-H2085 | 0.275 | 0.257 | 0.22 | 0.246 | 0.23 | 0.384 | 0.411 | 0.481 | 0.469 | 0.402 | 1.12 | 1.17 | 1.19 | 1.13 | 0.672 | 0.838 | 1.06 | 1.05 | 0.848 | 0.371
5 | NCI-H727 | 0.421 | 0.274 | 0.372 | 0.252 | 0.252 | 0.565 | 0.66 |  | 0.678 | 0.617 |  | 0.519 | 0.507 | 0.387 | 0.26 | 0.944 | 0.873 | 0.933 | 0.91 | 0.718
6 | NCI-H1993 | 0.645 | 0.584 | 0.509 | 0.738 | 0.475 | 0.566 | 0.404 | 0.66 | 0.673 | 0.487 | 0.869 | 0.944 | 0.87 | 0.84 | 0.526 | 0.694 | 0.786 | 0.802 | 0.756 | 0.633
7 | EMC-BAC-2 | 0.318 | 0.323 | 0.289 | 0.445 | 0.197 | 0.509 | 0.556 | 0.506 | 0.432 | 0.431 | 1.2 | 1.35 | 1.28 | 1.08 | 0.758 | 1.03 | 0.621 | 0.997 | 0.818 | 0.39
8 | NCI-H2087 | 0.756 | 0.917 | 0.819 | 0.549 | 0.624 | 0.206 | 0.224 | 0.262 | 0.172 | 0.112 | 0.976 | 1.07 | 1.23 | 0.933 | 0.156 | 1.17 | 1.14 | 1.45 | 0.901 | 0.209
9 | NCI-H441 | 0.484 | 0.55 | 0.614 | 0.349 | 0.303 | 0.237 | 0.25 | 0.208 | 0.174 | 0.136 | 0.764 | 0.477 | 0.587 | 0.238 | 0.218 | 0.926 | 1 | 1.19 | 0.419 | 0.291
10 | LXF-289 | 0.244 | 0.203 | 0.182 |  | 0.191 | 0.629 | 0.666 | 0.674 | 0.619 | 0.589 | 0.934 | 0.995 | 1.12 | 0.922 | 0.469 | 0.911 | 0.978 | 1.09 | 0.894 | 0.895
11 | PC-3 [JPC-3] | 1 | 0.912 | 1.06 | 0.991 | 0.98 | 0.533 | 0.55 | 0.548 | 0.553 | 0.395 | 0.826 | 0.875 | 0.782 | 0.797 | 0.784 | 1.09 | 1.1 | 0.594 | 1.07 | 0.751
12 | HCC-366 | 0.644 | 0.606 | 0.488 | 0.543 | 0.174 | 0.289 | 0.448 | 0.497 | 0.5 | 0.0937 | 1.16 | 1.02 | 1.31 | 1.2 | 0.27 | 0.895 | 0.959 | 0.994 | 0.913 | 0.0534
13 | NCI-H1651 | 0.343 | 0.386 | 0.416 | 0.251 | 0.301 | 0.526 | 0.57 | 0.61 | 0.518 | 0.576 | 1.28 | 1.13 | 1.3 | 0.991 | 0.213 | 0.973 | 0.768 | 1.01 | 0.561 | 0.147
14 | NCI-H1355 | 0.627 | 0.68 | 0.518 | 0.525 | 0.254 | 0.397 | 0.425 | 0.436 | 0.373 | 0.331 | 0.996 | 0.878 | 0.927 | 1.08 | 0.688 | 0.991 | 1.01 | 1.24 | 0.95 | 0.444
15 | LC-2-ad | 0.481 | 0.31 | 0.385 | 0.271 | 0.236 | 0.541 | 0.54 | 0.566 | 0.482 | 0.272 | 0.391 | 0.487 | 0.474 | 0.171 | 0.122 | 0.892 | 0.863 | 1.09 | 0.63 | 0.361
16 | NCI-H1944 | 0.224 | 0.237 | 0.196 | 0.236 | 0.162 | 0.347 | 0.35 | 0.353 | 0.279 | 0.304 | 0.994 | 1.09 | 1.02 | 0.785 | 0.806 | 0.797 | 0.908 | 0.9 | 0.627 | 0.677
17 | HCC-827 | 0.398 | 0.389 | 0.311 | 0.597 | 0.423 | 0.496 | 0.49 | 0.58 | 0.543 | 0.477 | 0.996 | 1.06 | 1.03 | 1 | 1.01 | 1.04 | 1.02 | 1.05 | 0.936 | 0.684
18 | COR-L23 | 0.424 | 0.456 | 0.416 | 0.375 | 0.346 | 0.261 | 0.267 | 0.217 | 0.148 | 0.171 | 1.06 | 1.15 | 1.34 | 0.192 | 0.124 | 0.959 | 1.03 | 1.16 | 0.412 | 0.146
19 | NCI-H3122 | 0.846 | 0.808 | 0.765 | 0.218 | 0.514 | 0.221 | 0.216 | 0.216 | 0.202 | 0.157 | 1.1 | 1.06 | 1.06 | 1.07 | 0.199 | 0.977 | 1.01 | 1.08 | 1.07 | 0.207
20 | NCI-H2170 | 0.56 | 0.569 | 0.519 | 0.409 | 0.488 | 0.402 | 0.36 | 0.431 | 0.282 | 0.257 | 0.617 | 0.61 | 0.624 | 0.324 | 0.258 | 0.997 | 1.03 | 0.96 | 0.806 | 0.359
21 | NCI-H1793 | 0.434 | 0.367 | 0.382 | 0.332 | 0.392 | 0.358 | 0.314 | 0.31 | 0.312 | 0.219 | 0.464 | 0.729 | 0.382 | 0.394 | 0.405 | 0.711 | 0.585 | 0.958 | 0.637 | 0.194
22 | BEN | 0.419 | 0.316 | 0.318 |  | 0.352 | 0.463 | 0.514 | 0.478 | 0.47 | 0.372 | 0.0635 | 0.0753 | 0.0591 | 0.0599 | 0.053 | 0.674 | 0.96 | 0.686 | 0.342 | 0.201
23 | NCI-H647 | 0.206 | 0.203 | 0.165 |  | 0.158 | 0.393 | 0.327 | 0.518 | 0.208 | 0.0953 | 1.22 | 0.978 | 1.41 | 0.461 | 0.0986 | 1.26 | 1.32 | 1.41 | 0.703 | 0.191
24 | PC-14 | 0.285 | 0.274 | 0.282 | 0.202 | 0.19 | 0.493 | 0.439 | 0.134 | 0.0579 | 0.152 | 1.13 | 1.14 | 1.22 | 0.43 | 0.104 | 1.02 | 1.09 | 1.23 | 0.917 | 0.186
25 | HCC-78 | 0.365 | 0.437 | 0.238 | 0.554 | 0.265 | 0.427 | 0.586 | 0.516 | 0.473 | 0.351 | 0.706 | 0.851 | 0.85 |  | 0.657 | 0.558 | 0.567 | 0.542 | 0.525 | 0.559
26 | NCI-H1666 | 0.854 | 0.767 | 0.853 | 0.64 | 0.473 | 0.736 | 0.63 | 0.679 | 0.705 | 0.52 | 0.987 | 0.876 | 0.945 | 0.527 | 0.25 | 1.03 | 0.989 | 0.903 | 0.918 | 0.539
27 | COR-L 105 | 0.321 | 0.374 | 0.294 | 0.289 | 0.252 | 0.439 | 0.39 | 0.369 | 0.362 | 0.305 | 0.722 | 0.824 | 0.676 | 0.464 | 0.345 | 1.46 | 1.01 | 1.03 | 0.468 | 0.345
28 | LU99A | 0.553 | 0.52 | 0.539 | 0.334 | 0.289 | 0.398 | 0.44 | 0.481 | 0.315 | 0.285 | 0.857 | 0.757 | 1.02 | 0.627 | 0.141 | 0.835 | 0.858 | 0.814 | 0.55 | 0.428
29 | 201T | 0.604 | 0.581 | 0.531 | 0.725 | 0.439 | 0.378 | 0.407 | 0.361 | 0.409 | 0.345 | 1.23 | 1.17 | 1.19 | 1.17 | 1.08 | 1.26 | 1.24 | 1.08 | 0.962 | 0.214
30 | HCC-15 | 0.62 | 0.559 | 0.519 |  | 0.35 | 0.518 | 0.847 | 0.899 | 0.644 | 0.418 | 0.792 | 0.82 | 0.848 | 0.665 | 0.401 | 1.1 | 1.02 | 1.1 | 0.561 | 0.188
